Data taken from ChEMBL document CHEMBL5096241, “Discovery of 3-Aminopyrazole Derivatives as New Potent and Orally Bioavailable AXL Inhibitors” (J Med Chem, 2022).
The source made the active and inactive calls. No cut-off for these calls is given here.

Tests used:
[1] = Observed MRTinfinity in Sprague-Dawley rat at 5 mg/kg, iv measured for 96 hrs by LC-MS analysis; type: ADME, organism-based; details: in vivo
[2] = Tmax in Sprague-Dawley rat at 5 mg/kg, iv measured for 96 hrs by LC-MS analysis; type: ADME, organism-based; details: in vivo
[3] = molecular target: Tyrosine-protein kinase receptor UFO (Homo sapiens) (UniProt P30530); assay: Inhibition of AXL phosphorylation at Tyr702 residue in human MDA-MB-231 cells measured after 6 hrs by Western blot analysis; type: cell-based; details: dose 0.8-500 nM, DDE = dose-dependent effect
[4] = Toxicity in BALB/c mouse implanted with mouse 4T1 cells assessed as effect on implantation rate at 50 to 100 mg/kg, po qd administered for 14 consecutive days and measured every 2 days; type: organism-based; details: in vivo, 336 h, dose 50-100 mg/kg, time 14 day
MDA-MB-231 [5] = assay: Inhibition of TGF-beta induced epithelial mesenchymal transition process in human metastatic MDA-MB-231 cells assessed as restoration of E-cadherin expression incubated for 3 days by Western blot analysis; type: functional, cell-based; details: dose 0.11-3 µM, time 3.0 day, DDE = dose-dependent effect
[6] = Inhibition of TGF-beta induced cell invasion in human MDA-MB-231 cells at 0.11 uM incubated for 24 hrs by crystal violet staining based transwell assay relative to control; type: functional
4T1 [7] = assay: Antitumor activity against metastatic mouse 4T1 cells implanted in BALB/c mouse assessed as reduction in number of liver metastases at 50 mg/kg, po qd administered for 14 consecutive days by H & E staining based microscopic analysis (reference value: 24.7 +/- 6.7); type: functional; details: time 14 day
[8] = molecular target: Receptor-type tyrosine-protein kinase FLT3 (Homo sapiens, UniProt P36888); assay: Inhibition of FLT3 (unknown origin)
[9] = molecular target: T1, Tyrosine-protein kinase receptor UFO (Homo sapiens, UniProt P30530); assay: Binding affinity to AXL (unknown origin) assessed as dissociation constant by competition binding assay
T1 sequence (P30530 whole entry): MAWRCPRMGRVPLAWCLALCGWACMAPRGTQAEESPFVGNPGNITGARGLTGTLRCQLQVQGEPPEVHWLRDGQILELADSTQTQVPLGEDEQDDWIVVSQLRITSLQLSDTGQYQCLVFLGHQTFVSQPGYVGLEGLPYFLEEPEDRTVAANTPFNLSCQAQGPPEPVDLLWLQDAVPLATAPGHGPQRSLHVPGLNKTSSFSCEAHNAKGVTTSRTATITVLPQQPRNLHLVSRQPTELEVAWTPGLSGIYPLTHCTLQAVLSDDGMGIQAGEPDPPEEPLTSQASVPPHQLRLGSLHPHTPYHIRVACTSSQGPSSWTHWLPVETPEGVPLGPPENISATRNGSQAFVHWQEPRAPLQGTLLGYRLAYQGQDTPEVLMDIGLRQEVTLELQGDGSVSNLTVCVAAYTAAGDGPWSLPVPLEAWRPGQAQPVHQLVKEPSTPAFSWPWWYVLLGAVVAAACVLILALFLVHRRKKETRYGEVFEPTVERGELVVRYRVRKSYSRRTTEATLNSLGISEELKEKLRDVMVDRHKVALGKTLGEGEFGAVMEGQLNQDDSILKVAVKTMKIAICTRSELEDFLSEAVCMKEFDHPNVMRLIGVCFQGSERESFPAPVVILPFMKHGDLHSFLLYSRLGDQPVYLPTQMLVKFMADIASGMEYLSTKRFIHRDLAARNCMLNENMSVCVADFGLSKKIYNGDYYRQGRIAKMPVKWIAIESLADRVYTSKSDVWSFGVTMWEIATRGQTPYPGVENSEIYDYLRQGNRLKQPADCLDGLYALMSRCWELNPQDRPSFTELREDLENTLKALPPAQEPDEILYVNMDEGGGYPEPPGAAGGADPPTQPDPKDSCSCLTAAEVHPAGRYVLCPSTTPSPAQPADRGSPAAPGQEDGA

[10] = molecular target: Vascular endothelial growth factor receptor 3 (Homo sapiens, UniProt P35916); assay: Binding affinity to FLT4 (unknown origin) assessed as dissociation constant by competition binding assay
[11] = molecular target: Macrophage-stimulating protein receptor (Homo sapiens, UniProt Q04912); assay: Binding affinity to […] (unknown origin) assessed as dissociation constant by competition binding assay
[12] = molecular target: T1, Tyrosine-protein kinase receptor UFO; assay: Inhibition of recombinant AXL (unknown origin) using poly (Glu,Tyr) 4:1 as substrate incubated for 60 mins in presence of ATP by ELISA
MDA-MB-231 [13] = assay: Inhibition of TGF-beta induced cell migration in human MDA-MB-231 cells assessed as reduction in wound closure at 1 to 3 uM incubated for 24 hrs by bright field microscopy based wound healing assay; type: functional; details: dose 1-3 µM
[14] = molecular target: Macrophage colony-stimulating factor 1 receptor (Homo sapiens, UniProt P07333); assay: Inhibition of CSF1R (unknown origin)
[15] = molecular target: Mitogen-activated protein kinase kinase kinase kinase 5 (Homo sapiens, UniProt Q9Y4K4); assay: Binding affinity to MAP4K5 (unknown origin) assessed as dissociation constant by competition binding assay
Ephrin type-B receptor 6 = Ephrin type-B receptor 6 (Homo sapiens, UniProt O15197); assay: Binding affinity to EPHB6 (unknown origin) assessed as dissociation constant by competition binding assay
4T1 [16] = assay: Antitumor activity against metastatic mouse 4T1 cells implanted in BALB/c mouse assessed as inhibition of liver micrometastasis at 50 to 100 mg/kg, po qd administered for 14 consecutive days by H & E staining based microscopic analysis; type: functional, organism-based; details: dose 50-100 mg/kg, time 14.0 day

Chain of Receptor-type tyrosine-protein kinase FLT3 (P36888 whole entry): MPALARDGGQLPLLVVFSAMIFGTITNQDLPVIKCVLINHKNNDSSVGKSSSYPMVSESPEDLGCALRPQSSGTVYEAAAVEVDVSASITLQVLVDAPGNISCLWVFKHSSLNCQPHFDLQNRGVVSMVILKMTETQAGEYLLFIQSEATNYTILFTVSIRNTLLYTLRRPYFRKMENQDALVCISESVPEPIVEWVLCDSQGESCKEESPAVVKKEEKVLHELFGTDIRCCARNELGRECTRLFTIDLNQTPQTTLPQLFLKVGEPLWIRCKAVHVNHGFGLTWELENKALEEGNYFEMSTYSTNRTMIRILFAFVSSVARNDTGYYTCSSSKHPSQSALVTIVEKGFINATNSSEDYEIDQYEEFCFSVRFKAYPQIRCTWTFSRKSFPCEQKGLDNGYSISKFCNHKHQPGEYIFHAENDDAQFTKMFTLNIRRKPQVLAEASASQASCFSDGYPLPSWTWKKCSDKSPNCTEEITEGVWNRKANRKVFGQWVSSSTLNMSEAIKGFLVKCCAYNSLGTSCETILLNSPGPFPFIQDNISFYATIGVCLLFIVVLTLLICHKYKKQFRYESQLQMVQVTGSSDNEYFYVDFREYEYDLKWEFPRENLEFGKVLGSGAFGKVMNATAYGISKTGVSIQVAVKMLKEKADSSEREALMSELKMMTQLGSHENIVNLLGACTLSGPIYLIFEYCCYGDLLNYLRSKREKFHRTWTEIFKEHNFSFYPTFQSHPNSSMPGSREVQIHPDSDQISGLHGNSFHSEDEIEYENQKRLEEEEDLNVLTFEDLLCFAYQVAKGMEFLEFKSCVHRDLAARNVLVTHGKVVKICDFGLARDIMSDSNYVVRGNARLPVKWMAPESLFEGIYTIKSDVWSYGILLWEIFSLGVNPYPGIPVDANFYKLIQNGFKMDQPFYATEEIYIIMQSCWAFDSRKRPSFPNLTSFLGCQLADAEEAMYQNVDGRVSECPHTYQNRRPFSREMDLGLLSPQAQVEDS
Chain of Mitogen-activated protein kinase kinase kinase kinase 5 (Q9Y4K4 whole entry): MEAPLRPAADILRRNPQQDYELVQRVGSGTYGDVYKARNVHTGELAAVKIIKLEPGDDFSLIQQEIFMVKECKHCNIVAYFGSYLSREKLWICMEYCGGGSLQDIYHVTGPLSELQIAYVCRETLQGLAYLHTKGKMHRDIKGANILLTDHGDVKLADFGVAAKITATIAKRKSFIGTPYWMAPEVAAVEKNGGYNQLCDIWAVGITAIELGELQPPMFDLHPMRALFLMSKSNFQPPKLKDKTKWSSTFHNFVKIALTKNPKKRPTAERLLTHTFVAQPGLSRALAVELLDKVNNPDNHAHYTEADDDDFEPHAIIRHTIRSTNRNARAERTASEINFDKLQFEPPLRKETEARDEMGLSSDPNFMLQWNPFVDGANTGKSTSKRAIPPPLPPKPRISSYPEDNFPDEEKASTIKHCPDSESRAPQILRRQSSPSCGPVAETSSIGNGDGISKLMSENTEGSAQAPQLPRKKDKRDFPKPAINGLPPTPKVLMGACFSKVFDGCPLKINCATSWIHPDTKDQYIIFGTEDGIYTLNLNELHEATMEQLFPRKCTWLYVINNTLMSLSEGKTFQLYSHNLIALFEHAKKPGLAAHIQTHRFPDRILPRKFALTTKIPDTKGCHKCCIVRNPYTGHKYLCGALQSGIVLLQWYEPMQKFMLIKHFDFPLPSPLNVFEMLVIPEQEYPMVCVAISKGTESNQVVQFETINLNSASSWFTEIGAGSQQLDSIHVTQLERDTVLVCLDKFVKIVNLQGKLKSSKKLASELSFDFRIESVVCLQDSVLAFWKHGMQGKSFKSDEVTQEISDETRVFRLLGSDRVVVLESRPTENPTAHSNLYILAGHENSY
Chain of Vascular endothelial growth factor receptor 3 (P35916 whole entry): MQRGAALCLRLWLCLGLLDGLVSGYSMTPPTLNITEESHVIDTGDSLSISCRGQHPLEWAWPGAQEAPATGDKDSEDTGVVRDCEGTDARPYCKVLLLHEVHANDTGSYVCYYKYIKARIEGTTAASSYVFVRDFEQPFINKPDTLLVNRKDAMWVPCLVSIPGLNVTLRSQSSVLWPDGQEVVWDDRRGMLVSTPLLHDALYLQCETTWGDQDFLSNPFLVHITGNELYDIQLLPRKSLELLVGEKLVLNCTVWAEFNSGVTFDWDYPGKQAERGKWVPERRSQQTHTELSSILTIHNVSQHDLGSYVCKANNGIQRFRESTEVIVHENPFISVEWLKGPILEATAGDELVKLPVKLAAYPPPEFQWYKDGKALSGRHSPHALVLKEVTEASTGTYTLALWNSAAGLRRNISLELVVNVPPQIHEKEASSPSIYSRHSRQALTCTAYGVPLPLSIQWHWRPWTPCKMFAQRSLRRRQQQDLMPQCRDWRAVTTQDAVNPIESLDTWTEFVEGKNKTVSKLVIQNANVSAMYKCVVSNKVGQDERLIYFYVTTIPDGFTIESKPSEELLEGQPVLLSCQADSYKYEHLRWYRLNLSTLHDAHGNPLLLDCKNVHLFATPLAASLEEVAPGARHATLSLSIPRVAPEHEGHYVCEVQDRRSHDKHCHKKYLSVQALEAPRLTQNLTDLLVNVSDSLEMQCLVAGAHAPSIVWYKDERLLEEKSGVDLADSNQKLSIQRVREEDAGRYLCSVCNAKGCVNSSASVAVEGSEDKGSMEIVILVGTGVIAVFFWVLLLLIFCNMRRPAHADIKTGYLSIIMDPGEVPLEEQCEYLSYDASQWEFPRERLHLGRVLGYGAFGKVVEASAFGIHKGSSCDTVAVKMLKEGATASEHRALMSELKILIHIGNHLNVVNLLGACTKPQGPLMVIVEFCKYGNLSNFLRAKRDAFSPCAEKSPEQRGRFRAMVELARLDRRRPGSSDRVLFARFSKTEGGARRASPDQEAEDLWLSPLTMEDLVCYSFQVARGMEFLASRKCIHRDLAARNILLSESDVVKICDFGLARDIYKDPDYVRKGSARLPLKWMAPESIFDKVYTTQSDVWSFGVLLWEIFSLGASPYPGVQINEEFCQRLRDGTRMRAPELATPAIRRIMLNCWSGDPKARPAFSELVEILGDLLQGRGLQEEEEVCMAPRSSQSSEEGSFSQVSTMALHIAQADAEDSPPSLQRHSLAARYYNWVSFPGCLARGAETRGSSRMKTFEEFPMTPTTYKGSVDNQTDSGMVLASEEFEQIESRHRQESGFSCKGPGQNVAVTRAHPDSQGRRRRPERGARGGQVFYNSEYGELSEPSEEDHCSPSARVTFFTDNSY
Chain of Ephrin type-B receptor 6 (O15197 whole entry): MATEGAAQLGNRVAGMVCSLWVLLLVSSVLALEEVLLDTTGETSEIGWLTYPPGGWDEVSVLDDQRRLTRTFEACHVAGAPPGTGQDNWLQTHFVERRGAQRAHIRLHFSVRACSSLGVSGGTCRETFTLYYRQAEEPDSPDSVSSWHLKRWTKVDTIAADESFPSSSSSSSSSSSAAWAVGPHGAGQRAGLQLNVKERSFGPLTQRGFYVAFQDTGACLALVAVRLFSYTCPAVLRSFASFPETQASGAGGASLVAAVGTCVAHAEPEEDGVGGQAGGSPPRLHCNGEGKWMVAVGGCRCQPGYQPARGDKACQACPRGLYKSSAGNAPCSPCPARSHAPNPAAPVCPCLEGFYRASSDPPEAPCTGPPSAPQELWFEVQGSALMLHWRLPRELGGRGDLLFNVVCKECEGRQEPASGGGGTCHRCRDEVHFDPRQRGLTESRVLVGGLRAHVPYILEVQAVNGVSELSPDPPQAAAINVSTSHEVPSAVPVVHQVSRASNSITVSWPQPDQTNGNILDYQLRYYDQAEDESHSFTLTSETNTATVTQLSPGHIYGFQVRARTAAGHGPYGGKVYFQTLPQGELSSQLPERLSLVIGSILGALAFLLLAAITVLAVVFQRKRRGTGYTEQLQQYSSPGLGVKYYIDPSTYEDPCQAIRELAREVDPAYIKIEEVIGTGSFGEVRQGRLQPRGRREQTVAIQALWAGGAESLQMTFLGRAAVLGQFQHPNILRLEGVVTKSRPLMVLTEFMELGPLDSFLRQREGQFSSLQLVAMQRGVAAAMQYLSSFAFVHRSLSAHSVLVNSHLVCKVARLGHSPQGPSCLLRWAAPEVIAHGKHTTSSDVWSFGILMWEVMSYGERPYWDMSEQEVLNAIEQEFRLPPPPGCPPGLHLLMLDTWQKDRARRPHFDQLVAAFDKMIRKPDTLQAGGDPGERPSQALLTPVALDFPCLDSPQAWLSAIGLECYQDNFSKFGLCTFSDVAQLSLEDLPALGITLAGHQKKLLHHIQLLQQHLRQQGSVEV

COc1cc2c(Oc3ccc(Nc4nn(C)cc4C(=O)NC4CCCCC4)cc3F)ccnc2cc1OCCCN1CCOCC1
MRT inf [1]: 109 min
Tmax [2]: 4.8 min
inhibition [3]: Dde
Activity [4]: Non-Toxic
inhibition (MDA-MB-231 [5]): Dde
inhibition at 0.11 µM [6]: 22.6%
Activity (4T1 [7]): 3.2
IC50 [8]: 156 nM
Kd [9]: 0.26 nM
Kd [10]: 19 nM
Kd [11]: > 1000 nM
IC50 [12]: 1.6 nM
inhibition (MDA-MB-231 [13]): Active
IC50 [14]: 26.7 nM
Kd [15]: > 1000 nM
Kd (Ephrin type-B receptor 6): > 1000 nM
inhibition (4T1 [16]): Active
